According to PubChem BioAssay (NCI):
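Protocol summary: plate cells (96-well), add compound at 5 concentrations, incubate 48 h, interpolate endpoints linearly. Abbreviation: GI50, concentration required for 50% inhibition of growth. TGI: concentration producing complete growth inhibition.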

Assays:
Assay in all cases: NCI tumour cell line growth inhibition, 48 h
BT-549 breast = tested on: BT-549 breast
CAKI-1 renal = tested on: CAKI-1 renal
COLO 205 colon = tested on: COLO 205 colon
HCC-2998 colon = tested on: HCC-2998 colon
K-562 leukemia = tested on: K-562 leukemia
M14 melanoma = tested on: M14 melanoma
NCI-H23 lung = tested on: NCI-H23 lung
NCI-H460 lung = tested on: NCI-H460 lung
SF-268 CNS = tested on: SF-268 CNS
SF-295 CNS = tested on: SF-295 CNS
SN12C renal = tested on: SN12C renal
SR leukemia = tested on: SR leukemia
SW-620 colon = tested on: SW-620 colon
UACC-257 melanoma = tested on: UACC-257 melanoma
UACC-62 melanoma = tested on: UACC-62 melanoma
786-0 renal = tested on: 786-0 renal
A498 renal = tested on: A498 renal
A549 NSCLC = tested on: A549 NSCLC
ACHN renal = tested on: ACHN renal
DU-145 prostate = tested on: DU-145 prostate
EKVX NSCLC = tested on: EKVX NSCLC
HCT-116 colon = tested on: HCT-116 colon
HCT-15 colon = tested on: HCT-15 colon
HL-60(TB) leukemia = tested on: HL-60(TB) leukemia
HOP-62 NSCLC = tested on: HOP-62 NSCLC
HOP-92 NSCLC = tested on: HOP-92 NSCLC
HS 578T breast = tested on: HS 578T breast
HT29 colon = tested on: HT29 colon
IGROV1 ovarian = tested on: IGROV1 ovarian
KM12 colon = tested on: KM12 colon
MALME-3M melanoma = tested on: MALME-3M melanoma
MCF7 breast = tested on: MCF7 breast
MDA-MB-231 breast = tested on: MDA-MB-231 breast
MDA-MB-435 = tested on: MDA-MB-435
MOLT-4 leukemia = tested on: MOLT-4 leukemia
NCI-H226 lung = tested on: NCI-H226 lung
NCI-H522 lung = tested on: NCI-H522 lung
NCI/ADR-RES ovarian = tested on: NCI/ADR-RES ovarian
OVCAR-3 ovarian = tested on: OVCAR-3 ovarian
OVCAR-4 ovarian = tested on: OVCAR-4 ovarian
OVCAR-5 ovarian = tested on: OVCAR-5 ovarian
OVCAR-8 ovarian = tested on: OVCAR-8 ovarian
RXF 393 renal = tested on: RXF 393 renal
SF-539 CNS = tested on: SF-539 CNS
SK-MEL-2 melanoma = tested on: SK-MEL-2 melanoma
SK-MEL-28 melanoma = tested on: SK-MEL-28 melanoma
SK-MEL-5 melanoma = tested on: SK-MEL-5 melanoma
SK-OV-3 ovarian = tested on: SK-OV-3 ovarian
SNB-19 CNS = tested on: SNB-19 CNS
SNB-75 CNS = tested on: SNB-75 CNS
T-47D breast = tested on: T-47D breast
TK-10 renal = tested on: TK-10 renal
UO-31 renal = tested on: UO-31 renal

In the case of C=CC(=O)N1CC2(CC(n3nc(-c4ccc(Oc5ccccc5)cc4)c4c(N)ncnc43)C2)C1, the GI50 (BT-549 breast) is reported as 1.4 µM, the TGI (BT-549 breast) is reported as > 100 µM and the GI50 (CAKI-1 renal) is reported as 1.04 µM. For the same compound, the TGI (CAKI-1 renal) was > 100 µM, the GI50 (COLO 205 colon) was 1.46 µM and the TGI (COLO 205 colon) was > 100 µM. For the same compound, the GI50 (HCC-2998 colon) was > 100 µM, the TGI (HCC-2998 colon) was > 100 µM and the GI50 (K-562 leukemia) was 1.19 µM. For the same compound, the TGI (K-562 leukemia) was > 100 µM, the GI50 (M14 melanoma) was 2.23 µM and the TGI (M14 melanoma) was > 100 µM. For the same compound, the GI50 (NCI-H23 lung) was > 100 µM, the TGI (NCI-H23 lung) was > 100 µM and the GI50 (NCI-H460 lung) was > 100 µM. The TGI (NCI-H460 lung) was > 100 µM, the GI50 (SF-268 CNS) was 1.43 µM and the TGI (SF-268 CNS) was > 100 µM. The GI50 (SF-295 CNS) was > 100 µM, the TGI (SF-295 CNS) was > 100 µM and the GI50 (SN12C renal) was 0.78 µM. For the same compound, the TGI (SN12C renal) was > 100 µM, the GI50 (SR leukemia) was 6.45 µM and the TGI (SR leukemia) was > 100 µM. For the same compound, the GI50 (SW-620 colon) was > 100 µM, the TGI (SW-620 colon) was > 100 µM and the GI50 (UACC-257 melanoma) was 1.97 µM. The TGI (UACC-257 melanoma) was > 100 µM, the GI50 (UACC-62 melanoma) was 1.72 µM and the TGI (UACC-62 melanoma) was > 100 µM.

With CCOP(=O)(CCN1CCN(CCCCCOc2cc3c(cc2OC)C(=O)N2CCC[C@H]2C=N3)CC1)OCC the GI50 (786-0 renal) was 12.5 µM, the TGI (786-0 renal) was > 100 µM and the GI50 (A498 renal) was 15 µM. The TGI (A498 renal) was 43 µM, the GI50 (A549 NSCLC) was 8.55 µM and the TGI (A549 NSCLC) was 34.8 µM. For the same compound, the GI50 (ACHN renal) was 18.5 µM, the TGI (ACHN renal) was 50.4 µM and the GI50 (BT-549 breast) was 5.96 µM. It also gave a TGI (BT-549 breast) of 31.7 µM, a GI50 (CAKI-1 renal) of 5.84 µM and a TGI (CAKI-1 renal) of 97.9 µM. The GI50 (COLO 205 colon) was 3.39 µM, the TGI (COLO 205 colon) was 12.9 µM and the GI50 (DU-145 prostate) was 17.8 µM. It also gave a TGI (DU-145 prostate) of 63.3 µM, a GI50 (EKVX NSCLC) of 19.5 µM and a TGI (EKVX NSCLC) of 47.8 µM. The GI50 (HCC-2998 colon) was 17.3 µM, the TGI (HCC-2998 colon) was 38.1 µM and the GI50 (HCT-116 colon) was 7.66 µM. The TGI (HCT-116 colon) was 80.8 µM, the GI50 (HCT-15 colon) was 80 µM and the TGI (HCT-15 colon) was > 100 µM. The GI50 (HL-60(TB) leukemia) was 1.82 µM, the TGI (HL-60(TB) leukemia) was 8.39 µM and the GI50 (HOP-62 NSCLC) was 23 µM. The TGI (HOP-62 NSCLC) was > 100 µM, the GI50 (HOP-92 NSCLC) was 12.6 µM and the TGI (HOP-92 NSCLC) was 94.9 µM. It also gave a GI50 (HS 578T breast) of 3.54 µM, a TGI (HS 578T breast) of 31.1 µM and a GI50 (HT29 colon) of 6.84 µM. The TGI (HT29 colon) was > 100 µM, the GI50 (IGROV1 ovarian) was 2.74 µM and the TGI (IGROV1 ovarian) was 18.7 µM. The GI50 (K-562 leukemia) was 2.37 µM, the TGI (K-562 leukemia) was > 100 µM and the GI50 (KM12 colon) was 12.1 µM. It also gave a TGI (KM12 colon) of 36.3 µM, a GI50 (M14 melanoma) of 8.01 µM and a TGI (M14 melanoma) of 25.8 µM. For the same compound, the GI50 (MALME-3M melanoma) was 18.4 µM, the TGI (MALME-3M melanoma) was 47.7 µM and the GI50 (MCF7 breast) was 1.89 µM. The TGI (MCF7 breast) was 23.8 µM, the GI50 (MDA-MB-231 breast) was 4.55 µM and the TGI (MDA-MB-231 breast) was > 100 µM. The GI50 (MDA-MB-435) was 3.36 µM, the TGI (MDA-MB-435) was 17.3 µM and the GI50 (MOLT-4 leukemia) was 2.16 µM. It also gave a TGI (MOLT-4 leukemia) of 6.37 µM, a GI50 (NCI-H226 lung) of 17.1 µM and a TGI (NCI-H226 lung) of 65.5 µM. It also gave a GI50 (NCI-H23 lung) of 16.6 µM, a TGI (NCI-H23 lung) of 38.4 µM and a GI50 (NCI-H460 lung) of 6.14 µM. The TGI (NCI-H460 lung) was 46.1 µM, the GI50 (NCI-H522 lung) was 1.93 µM and the TGI (NCI-H522 lung) was 7.8 µM. For the same compound, the GI50 (NCI/ADR-RES ovarian) was > 100 µM, the TGI (NCI/ADR-RES ovarian) was > 100 µM and the GI50 (OVCAR-3 ovarian) was 7.48 µM. The TGI (OVCAR-3 ovarian) was 34.1 µM, the GI50 (OVCAR-4 ovarian) was 14.9 µM and the TGI (OVCAR-4 ovarian) was 57.1 µM. It also gave a GI50 (OVCAR-5 ovarian) of 27.7 µM, a TGI (OVCAR-5 ovarian) of 76.6 µM and a GI50 (OVCAR-8 ovarian) of 31.2 µM. For the same compound, the TGI (OVCAR-8 ovarian) was > 100 µM, the GI50 (RXF 393 renal) was 1.77 µM and the TGI (RXF 393 renal) was 6.59 µM. For the same compound, the GI50 (SF-268 CNS) was 3.53 µM, the TGI (SF-268 CNS) was 49.6 µM and the GI50 (SF-539 CNS) was 3.6 µM. It also gave a TGI (SF-539 CNS) of 17.7 µM, a GI50 (SK-MEL-2 melanoma) of 12.5 µM and a TGI (SK-MEL-2 melanoma) of 32 µM. It also gave a GI50 (SK-MEL-28 melanoma) of 6.35 µM, a TGI (SK-MEL-28 melanoma) of 20.4 µM and a GI50 (SK-MEL-5 melanoma) of 3.62 µM. For the same compound, the TGI (SK-MEL-5 melanoma) was 23.8 µM, the GI50 (SK-OV-3 ovarian) was 23.9 µM and the TGI (SK-OV-3 ovarian) was 99.8 µM. For the same compound, the GI50 (SN12C renal) was 5.18 µM, the TGI (SN12C renal) was > 100 µM and the GI50 (SNB-19 CNS) was 5.65 µM. The TGI (SNB-19 CNS) was > 100 µM, the GI50 (SNB-75 CNS) was 1.35 µM and the TGI (SNB-75 CNS) was 8.85 µM. For the same compound, the GI50 (SR leukemia) was 1.39 µM, the TGI (SR leukemia) was 4.25 µM and the GI50 (SW-620 colon) was 4.47 µM. It also gave a TGI (SW-620 colon) of 30.5 µM, a GI50 (T-47D breast) of 2.44 µM and a TGI (T-47D breast) of 9.38 µM. For the same compound, the GI50 (TK-10 renal) was 22.8 µM, the TGI (TK-10 renal) was > 100 µM and the GI50 (UACC-257 melanoma) was 15.8 µM. The TGI (UACC-257 melanoma) was 37.4 µM, the GI50 (UACC-62 melanoma) was 7.86 µM and the TGI (UACC-62 melanoma) was 24.2 µM. The GI50 (UO-31 renal) was 17.7 µM and the TGI (UO-31 renal) was 44.8 µM.
